ChEMBL document CHEMBL1201862, “PubChem BioAssay data set” (2004)
Active and inactive are the calls of the source.

Key:
[1] = system: Vero; assay: cells; type: functional, cell-based; details: Chlorocebus sabaeus
[2] = target: Paired box protein Pax-8 (Homo sapiens, UniProt Q06710); assay: inhibitors of PAX8-driven TPO luciferase reporter, dose response, RMG-I cells, cherry-pick (AID 687027); type: functional, cell-based;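 further: luciferase reporter driven by Pax8 target thyroperoxidase promoter measured by SteadyGlo luminescence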
[3] = system: Vero; assay: cells; type: functional; details: Chlorocebus sabaeus
[4] = target: Cytochrome P450 3A4 (Homo sapiens, UniProt P08684); details: Potency;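 further: confirmatory qHTS run detecting inhibitors and substrates of CYP3A4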
[5] = HEp-2 cell cytotoxicity, dose response, cytotoxicity control for RSV inhibitor project, HTS (AID 2410); type: functional; details: human respiratory syncytial virus
[6] = cells; type: functional, cell-based
[7] = cells; type: functional, cell-based; remark: listed apart in the source
[8] = target: T1, Carboxy-terminal domain RNA polymerase II polypeptide A small phosphatase 1 (Homo sapiens, UniProt Q9GZU7); assay: inhibitors of CTDSP1, concentration-response testing, biochemical assay, absorbance-based, actives from ultra-high-throughput screening (AID 540297); type: functional
T1 sequence (Q9GZU7 whole entry): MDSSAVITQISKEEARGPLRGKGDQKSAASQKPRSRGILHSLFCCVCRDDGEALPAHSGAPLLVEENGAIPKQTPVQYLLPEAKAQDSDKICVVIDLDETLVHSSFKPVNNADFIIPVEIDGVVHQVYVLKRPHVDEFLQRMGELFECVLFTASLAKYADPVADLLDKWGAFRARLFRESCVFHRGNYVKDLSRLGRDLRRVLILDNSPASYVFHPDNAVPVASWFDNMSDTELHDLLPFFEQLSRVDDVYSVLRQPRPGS

[9] = target: Large T antigen (Simian virus 40, UniProt P03070); type: functional, Betapolyomavirus macacae;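 further: Confirmatory-stage PubChem screen for compounds that inhibit SV40 T antigen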
[10] = target: Photoreceptor-specific nuclear receptor (Homo sapiens, UniProt Q9Y5X4); type: functional, cell-based;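 further: CHO-S cells with Gal4-NCOR and VP16-NR2E3 two-hybrid luciferase reporter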
[11] = target: T2, Protein skinhead-1 (Caenorhabditis elegans, UniProt P34707); type: functional
T2 sequence (P34707 whole entry): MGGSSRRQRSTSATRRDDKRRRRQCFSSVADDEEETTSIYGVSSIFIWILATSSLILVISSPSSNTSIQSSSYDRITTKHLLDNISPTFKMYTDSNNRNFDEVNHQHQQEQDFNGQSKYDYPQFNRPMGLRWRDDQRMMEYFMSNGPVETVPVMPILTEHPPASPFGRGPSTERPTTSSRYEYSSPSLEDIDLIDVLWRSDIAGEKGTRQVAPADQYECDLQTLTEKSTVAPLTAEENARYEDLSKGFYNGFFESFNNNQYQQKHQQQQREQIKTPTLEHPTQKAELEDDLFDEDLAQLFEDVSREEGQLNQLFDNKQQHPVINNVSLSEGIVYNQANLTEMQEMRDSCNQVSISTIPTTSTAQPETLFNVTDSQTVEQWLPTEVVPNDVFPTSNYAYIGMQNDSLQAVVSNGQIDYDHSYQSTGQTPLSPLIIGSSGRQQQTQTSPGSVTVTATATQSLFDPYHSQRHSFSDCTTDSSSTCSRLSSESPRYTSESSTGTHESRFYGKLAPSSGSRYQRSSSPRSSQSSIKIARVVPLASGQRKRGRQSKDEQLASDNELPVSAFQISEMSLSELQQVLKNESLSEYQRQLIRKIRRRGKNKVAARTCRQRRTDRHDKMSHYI

[12] = target: T3, Polyadenylate-binding protein 1 (Homo sapiens, UniProt P11940); assay: PABP1 MLLE–PAM2 binding inhibitor potency, dose response, biochemical, fluorescence polarization, FITC-PAM2 peptide (AID 602259); type: functional; details: read-out: IC50_Mean
[13] = target: FAD-linked sulfhydryl oxidase ALR (Homo sapiens, UniProt P55789); assay: inhibitors of human ALR sulfhydryl oxidase, dose response, biochemical, H2O2 detection, luminescence, cherry-pick (AID 493248)
[14] = target: T3, Polyadenylate-binding protein 1; assay: PABP1 MLLE–PAM2 interaction inhibitors, dose response, miRNA deadenylation inhibitor project, biochemical, fluorescence polarization, Cy5-PAM2 peptide, secondary (AID 602260); type: functional; details: read-out: IC50_Mean
[15] = cells; type: functional, cell-based; remark: listed apart in the source
[16] = cells; type: functional, cell-based; remark: listed apart in the source
[17] = microbe, parasite or virus in culture; type: functional; details: Mycobacterium tuberculosis
[18] = target: T4, Fatty acid synthase (Homo sapiens, UniProt P49327); assay: FAS thioesterase domain inhibitors, dose response, biochemical, kinetic fluorescence intensity (AID 624326); type: functional;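 further: rate of fluorescence rise from hydrolysis of a fluorogenic O-methyl fluorescein ester substrate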
[19] = target: T4, Fatty acid synthase; assay: FAS thioesterase domain inhibitors, dose response, biochemical, endpoint fluorescence intensity, uHTS hits (AID 624327); type: functional;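 further: fluorescence from hydrolysis of an O-methyl fluorescein acyl ester substrate by the enzyme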

Chain of Cytochrome P450 3A4 (P08684 whole entry): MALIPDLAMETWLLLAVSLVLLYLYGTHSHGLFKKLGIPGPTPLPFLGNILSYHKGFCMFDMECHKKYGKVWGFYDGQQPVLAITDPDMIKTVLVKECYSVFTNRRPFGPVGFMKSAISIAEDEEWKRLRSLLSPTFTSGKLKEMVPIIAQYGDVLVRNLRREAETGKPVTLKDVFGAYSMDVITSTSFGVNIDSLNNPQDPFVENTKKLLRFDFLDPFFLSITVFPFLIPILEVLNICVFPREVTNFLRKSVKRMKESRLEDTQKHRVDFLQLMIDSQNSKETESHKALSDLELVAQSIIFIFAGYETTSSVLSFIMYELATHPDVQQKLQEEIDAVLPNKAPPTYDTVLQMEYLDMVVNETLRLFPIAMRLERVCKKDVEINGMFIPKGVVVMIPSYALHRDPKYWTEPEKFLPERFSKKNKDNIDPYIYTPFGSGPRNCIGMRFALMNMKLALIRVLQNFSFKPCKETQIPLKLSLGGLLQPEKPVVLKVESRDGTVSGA
Chain of Large T antigen (P03070 whole entry, the tested form may be a part): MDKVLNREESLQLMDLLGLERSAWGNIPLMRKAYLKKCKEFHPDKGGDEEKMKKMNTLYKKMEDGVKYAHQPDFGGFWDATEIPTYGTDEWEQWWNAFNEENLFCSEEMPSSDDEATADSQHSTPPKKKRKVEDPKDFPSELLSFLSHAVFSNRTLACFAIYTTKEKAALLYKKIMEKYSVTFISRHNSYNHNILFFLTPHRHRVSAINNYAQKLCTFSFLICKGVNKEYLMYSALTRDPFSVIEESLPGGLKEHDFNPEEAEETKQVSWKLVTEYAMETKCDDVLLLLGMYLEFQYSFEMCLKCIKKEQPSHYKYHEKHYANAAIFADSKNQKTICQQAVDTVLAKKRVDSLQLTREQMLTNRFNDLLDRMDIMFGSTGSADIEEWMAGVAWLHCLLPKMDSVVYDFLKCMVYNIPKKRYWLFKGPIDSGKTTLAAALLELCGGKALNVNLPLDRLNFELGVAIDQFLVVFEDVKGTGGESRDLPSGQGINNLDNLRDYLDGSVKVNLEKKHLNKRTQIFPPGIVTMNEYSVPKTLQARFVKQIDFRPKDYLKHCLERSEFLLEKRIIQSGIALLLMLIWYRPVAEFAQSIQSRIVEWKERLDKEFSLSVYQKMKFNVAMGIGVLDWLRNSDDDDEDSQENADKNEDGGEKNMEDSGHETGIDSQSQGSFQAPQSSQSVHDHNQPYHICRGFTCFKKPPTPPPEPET
T3 sequence (P11940 whole entry): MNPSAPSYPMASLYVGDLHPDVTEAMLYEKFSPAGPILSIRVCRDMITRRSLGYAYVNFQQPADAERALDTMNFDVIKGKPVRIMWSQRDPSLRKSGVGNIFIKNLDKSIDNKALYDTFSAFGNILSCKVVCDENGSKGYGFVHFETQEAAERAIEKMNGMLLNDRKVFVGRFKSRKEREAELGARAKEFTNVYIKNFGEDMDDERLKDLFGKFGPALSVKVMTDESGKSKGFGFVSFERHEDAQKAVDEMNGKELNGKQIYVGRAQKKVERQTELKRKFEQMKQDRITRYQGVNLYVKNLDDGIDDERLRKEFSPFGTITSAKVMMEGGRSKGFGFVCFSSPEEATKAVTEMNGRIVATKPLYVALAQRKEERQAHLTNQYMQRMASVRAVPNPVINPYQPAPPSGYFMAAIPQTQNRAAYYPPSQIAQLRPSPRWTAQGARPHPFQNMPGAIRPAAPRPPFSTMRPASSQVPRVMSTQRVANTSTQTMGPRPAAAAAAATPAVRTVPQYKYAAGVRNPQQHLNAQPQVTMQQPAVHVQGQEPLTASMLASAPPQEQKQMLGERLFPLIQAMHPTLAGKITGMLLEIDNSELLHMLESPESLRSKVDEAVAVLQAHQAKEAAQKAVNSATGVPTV
T4 sequence (P49327 whole entry, the tested form may be a part): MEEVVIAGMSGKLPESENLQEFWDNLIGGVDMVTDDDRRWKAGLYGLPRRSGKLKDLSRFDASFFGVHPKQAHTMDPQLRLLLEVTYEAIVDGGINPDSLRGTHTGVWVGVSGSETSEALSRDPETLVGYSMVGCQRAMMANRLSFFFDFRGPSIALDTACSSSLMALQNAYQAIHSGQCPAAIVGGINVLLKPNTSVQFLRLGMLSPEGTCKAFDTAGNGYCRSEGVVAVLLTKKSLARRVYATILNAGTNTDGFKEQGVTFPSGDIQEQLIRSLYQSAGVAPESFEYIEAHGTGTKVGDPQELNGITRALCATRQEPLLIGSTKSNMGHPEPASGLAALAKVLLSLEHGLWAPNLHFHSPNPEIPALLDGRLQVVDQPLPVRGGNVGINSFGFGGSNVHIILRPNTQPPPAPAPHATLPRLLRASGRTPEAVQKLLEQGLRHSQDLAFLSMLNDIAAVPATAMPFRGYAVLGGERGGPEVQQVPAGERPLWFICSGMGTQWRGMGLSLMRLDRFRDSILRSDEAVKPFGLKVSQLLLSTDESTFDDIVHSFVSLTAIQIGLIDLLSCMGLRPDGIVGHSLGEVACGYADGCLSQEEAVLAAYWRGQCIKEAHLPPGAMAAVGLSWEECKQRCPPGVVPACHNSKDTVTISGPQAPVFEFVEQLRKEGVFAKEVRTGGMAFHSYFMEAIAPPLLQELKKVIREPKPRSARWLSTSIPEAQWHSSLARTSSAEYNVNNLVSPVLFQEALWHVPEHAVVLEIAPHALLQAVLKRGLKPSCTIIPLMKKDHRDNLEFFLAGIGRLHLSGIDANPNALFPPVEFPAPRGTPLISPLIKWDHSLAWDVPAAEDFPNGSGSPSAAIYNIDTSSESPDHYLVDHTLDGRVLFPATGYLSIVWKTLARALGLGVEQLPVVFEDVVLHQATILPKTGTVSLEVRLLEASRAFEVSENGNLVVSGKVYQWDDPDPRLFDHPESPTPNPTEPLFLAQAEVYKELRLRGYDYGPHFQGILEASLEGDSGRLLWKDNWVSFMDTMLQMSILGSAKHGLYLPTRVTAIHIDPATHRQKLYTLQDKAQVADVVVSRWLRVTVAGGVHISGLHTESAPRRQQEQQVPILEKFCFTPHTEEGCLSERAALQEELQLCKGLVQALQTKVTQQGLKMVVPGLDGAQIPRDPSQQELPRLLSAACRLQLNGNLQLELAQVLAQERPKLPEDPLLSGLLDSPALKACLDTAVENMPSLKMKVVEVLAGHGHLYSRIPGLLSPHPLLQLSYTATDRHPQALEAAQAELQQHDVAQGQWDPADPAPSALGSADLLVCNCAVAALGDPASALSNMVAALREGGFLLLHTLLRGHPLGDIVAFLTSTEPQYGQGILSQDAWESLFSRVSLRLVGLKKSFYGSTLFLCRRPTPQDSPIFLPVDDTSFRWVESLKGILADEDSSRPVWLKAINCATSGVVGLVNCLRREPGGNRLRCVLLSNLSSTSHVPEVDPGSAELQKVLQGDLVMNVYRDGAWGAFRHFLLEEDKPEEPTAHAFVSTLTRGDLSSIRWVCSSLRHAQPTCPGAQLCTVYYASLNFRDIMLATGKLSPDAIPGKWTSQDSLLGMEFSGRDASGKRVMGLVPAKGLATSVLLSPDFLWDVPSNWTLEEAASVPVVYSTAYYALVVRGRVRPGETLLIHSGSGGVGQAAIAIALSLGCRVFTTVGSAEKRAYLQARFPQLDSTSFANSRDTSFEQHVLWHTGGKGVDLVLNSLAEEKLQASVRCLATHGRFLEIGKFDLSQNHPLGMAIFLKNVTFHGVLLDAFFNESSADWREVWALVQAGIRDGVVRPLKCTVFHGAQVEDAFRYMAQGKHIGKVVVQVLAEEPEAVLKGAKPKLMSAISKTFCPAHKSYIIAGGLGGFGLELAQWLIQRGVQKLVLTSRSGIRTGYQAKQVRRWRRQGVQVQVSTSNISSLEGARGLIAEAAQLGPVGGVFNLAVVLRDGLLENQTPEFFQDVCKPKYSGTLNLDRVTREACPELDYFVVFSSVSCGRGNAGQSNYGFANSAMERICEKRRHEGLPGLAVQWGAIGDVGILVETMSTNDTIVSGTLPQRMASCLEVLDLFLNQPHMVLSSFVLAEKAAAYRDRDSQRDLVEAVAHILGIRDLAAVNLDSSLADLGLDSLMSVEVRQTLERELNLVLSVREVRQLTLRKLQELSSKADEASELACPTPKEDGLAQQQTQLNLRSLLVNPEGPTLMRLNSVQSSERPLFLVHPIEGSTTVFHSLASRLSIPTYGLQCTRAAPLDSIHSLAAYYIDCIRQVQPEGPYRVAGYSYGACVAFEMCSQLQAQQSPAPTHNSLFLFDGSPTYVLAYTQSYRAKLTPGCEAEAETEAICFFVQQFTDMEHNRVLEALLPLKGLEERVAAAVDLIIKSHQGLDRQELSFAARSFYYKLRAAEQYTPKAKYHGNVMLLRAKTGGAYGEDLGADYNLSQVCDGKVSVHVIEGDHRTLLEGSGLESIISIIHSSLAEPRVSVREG
Chain of Paired box protein Pax-8 (Q06710 whole entry): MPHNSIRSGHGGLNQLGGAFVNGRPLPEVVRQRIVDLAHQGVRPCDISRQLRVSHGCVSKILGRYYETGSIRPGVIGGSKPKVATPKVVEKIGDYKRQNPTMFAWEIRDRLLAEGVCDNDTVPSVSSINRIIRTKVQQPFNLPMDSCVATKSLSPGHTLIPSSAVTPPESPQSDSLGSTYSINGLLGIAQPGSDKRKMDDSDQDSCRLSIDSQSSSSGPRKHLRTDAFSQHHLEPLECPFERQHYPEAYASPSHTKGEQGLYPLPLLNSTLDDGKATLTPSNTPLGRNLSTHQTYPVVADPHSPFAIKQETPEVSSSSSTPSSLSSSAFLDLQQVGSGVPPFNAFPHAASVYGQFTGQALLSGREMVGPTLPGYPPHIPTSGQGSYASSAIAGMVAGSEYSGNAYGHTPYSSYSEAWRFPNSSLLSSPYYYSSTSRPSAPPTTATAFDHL
Chain of FAD-linked sulfhydryl oxidase ALR (P55789 whole entry): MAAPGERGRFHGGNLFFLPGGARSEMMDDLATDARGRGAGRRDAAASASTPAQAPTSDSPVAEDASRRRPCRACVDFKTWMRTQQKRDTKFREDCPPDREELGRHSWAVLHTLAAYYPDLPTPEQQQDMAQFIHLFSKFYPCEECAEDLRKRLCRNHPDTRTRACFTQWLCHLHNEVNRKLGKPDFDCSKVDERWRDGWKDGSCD

## C[C@]12CC[C@H](O)C[C@@H]1CC[C@@H]1[C@@H]2CC[C@]2(C)[C@@H](C3=CC(=O)OC3)CC[C@]12O
[1]
  IC50: < 0.05 µM (active)
[2]
  AC50: 2.09 µM (active)
[3]
  CC50: 1.65 µM (active)

## COC(=O)c1ccc(CN2[C@@H]3C[C@@H](O)CC[C@@H]3C[C@H]2C(=O)OC)cc1
[4]
  AC50: 15.8 µM (inconclusive)

## COc1ccc(CNC(=O)C(C)Cc2ccccc2)cc1O (stereo unspecified)
[4]
  AC50: 6.31 µM (inconclusive)

## Cc1ccc2nc(-c3ccc(N)cc3)sc2c1S(=O)(=O)O
[4]
  AC50: 31.6 µM (inconclusive)

## N#C/C(=C/c1ccc(N2CCCCC2)o1)C(=O)NCCc1c[nH]c2ccccc12
[5]
  CC50: 49.6 µM (active)
[3]
  CC50: > 25 µM (active)

## O=C(NCCc1ccccc1)C1CCN(C(=O)c2ccc([N+](=O)[O-])cc2)CC1
[6]
  EC50: > 29.9 µM (inactive)
[7]
  IC50: > 29.9 µM (inactive)

## Nc1c(C(=O)OCC(=O)Nc2cccc([N+](=O)[O-])c2)[nH]c(=O)[nH]c1=O
[8]
  IC50: 7.55 µM (active)

## O=C(NCCCN1CCOCC1)c1ccc(/C=C2\Oc3ccccc3N(Cc3ccccc3F)C2=O)cc1
[1]
  IC50: 21.9 µM (active)

## O=[N+]([O-])c1ccc2c(c1N1CCCCC1)=NC1(CCCCC1)[N+]=2[O-]
[9]
  IC50: > 100 µM (active)

## COc1cc(/C=C2\C(C)=C(C#N)c3nc(N)c(C#N)c(C)c32)ccc1OCC(=O)O
[9]
  IC50: 58.1 µM (active)

## CC(=O)N1c2ccc(S(=O)(=O)N3CCC(C(=O)Nc4cccc(Cl)c4)CC3)cc2CC1C (stereo unspecified)
[10]
  IC50: 1.47 µM (active)

## COc1ccc(NC2CCCN(C(=O)CSc3ccccc3)C2)cc1 (stereo unspecified)
[9]
  IC50: 7.48 µM (active)

## Cn1c(=O)c2nc(Nc3ccccc3)[nH]c2n(C)c1=O
[6]
  EC50: > 29.9 µM (inactive)
[7]
  IC50: > 29.9 µM (inactive)

## CC(C)(C)NC(=O)CN(C(=O)CCN1CCCc2ccccc21)C(C)(C)C
[11]
  IC50: > 100 µM (inactive)
[12]
  IC50: > 66 µM (inactive)
[13]
  AC50: 4.37 µM (active)
[14]
  IC50: > 66 µM (inactive)

## CCOC(=O)Cc1csc(SCC(=O)Nc2sc3c(c2C(N)=O)CCC3)n1
[8]
  IC50: 4.63 µM (active)

## Cc1ccccc1CN1C(=O)CSc2ccc(C(=O)N3CCOCC3)cc21
[15]
  EC50: > 350 µM (not active)
[16]
  EC50: > 350 µM (not active)

## CCN1CSC(=S)N(Cc2ccccc2)C1
[17]
  CC50: 20.7 µM (active)
[3]
  CC50: 16.1 µM (active)

## COc1ccc(CN(Cc2cc3cccc(C)c3n3nnnc23)C(=O)N2CCOCC2)cc1
[18]
  IC50: 26.4 µM (inactive)
[19]
  IC50: 18.8 µM (active)

## CS(=O)(=O)c1ccc2nc(NC(=O)C3CC(=O)N(c4ccc(F)cc4)C3)sc2c1 (stereo unspecified)
[15]
  EC50: > 350 µM (not active)
[16]
  EC50: > 350 µM (not active)
